From patent publication US10144737B2 (ETERNITY BIOSCIENCE INC., priority 2014, dated 2018)

Tests used:
[1] = biological target: T1, Btk (Homo sapiens, UniProt Q06187); experiment: Btk kinase assay (ADP-Glo); type: biochemical; conditions: ADP-Glo Btk kinase assay kit; ATP 1.2 μM; 60 minutes at room temperature
T1 construct: purchased Promega (Madison, Wis.)
Experimental: Btk kinase assay—The Btk kinase assay was performed using a ADP-Glo Btk kinase assay kit purchased from Promega (Madison, Wis.). The assay was conducted according to the protocols provided in the assay kit. In brief, the enzyme reaction was carried out in the kinase reaction buffer containing Btk (2 ng/μl), ATP (1.2 μM), poly GT peptide (0.3 μM), DTT (40 nM), MnCl2 (1.4 mM), and 1 xkinase buffer (included in the kit) in the presence or absence of the tested articles at various concentrations in 384-well plate at room temperature (22±1° C.) for 60 minutes. The final reaction volume for each reaction was 10 μl. Then, 4 μl of ADP-Glo reagent (included in the kit) was added into the reaction and the plate was further incubated for another 40 minutes to terminate the reaction and deplete the remaining ATP. Finally, 10 μl of the kinase detection reagent was added into each reaction to simultaneously convert ADP to ATP and allow the newly synthesized ATP to be measured by a plate-reading luminometer (Victor X5 2030 multilabel reader, PerkinElmer). IC50 value was calculated using appropriate programs in GraphPad Prism by plotting the logarithm of the concentration versus percent inhibition as compared with a vehicle (DMSO) control.

[2] = system: TMD-8 cells; experiment: Cell proliferation assay (CellTiter-Glo), TMD-8 cells; type: cell-based; conditions: Homo sapiens, TMD8, 120 h, 5-day treatment, read-out: TMD8 cell growth (GI50 μM)
Experimental: Cell proliferation assay: TMD-8 and SU-DHL-1 cells were maintained at 37° C. in a humidified atmosphere with 5% CO2 in the recommended medium and serum concentrations. For cell proliferation assay, cells were seeded in 96-well pates at a density of 5,000 to 10,000 cells per well and cultured overnight at 37° C. in recommended medium supplemented with 5-10% FBS. On the next day, the test articles at various concentrations or vehicle control (0.5% DMSO) were added into cell culture. After 5-day treatment, the growth of cells was assayed by the CellTiter-Glo® Luminestceaent Cell Viability Assay (Promega). IC50 values were calculated using GraphPad Prism by plotting the logarithm of the concentration versus percent inhibition of cell growth as compared with the vehicle control.

T1 sequence (Q06187 whole entry): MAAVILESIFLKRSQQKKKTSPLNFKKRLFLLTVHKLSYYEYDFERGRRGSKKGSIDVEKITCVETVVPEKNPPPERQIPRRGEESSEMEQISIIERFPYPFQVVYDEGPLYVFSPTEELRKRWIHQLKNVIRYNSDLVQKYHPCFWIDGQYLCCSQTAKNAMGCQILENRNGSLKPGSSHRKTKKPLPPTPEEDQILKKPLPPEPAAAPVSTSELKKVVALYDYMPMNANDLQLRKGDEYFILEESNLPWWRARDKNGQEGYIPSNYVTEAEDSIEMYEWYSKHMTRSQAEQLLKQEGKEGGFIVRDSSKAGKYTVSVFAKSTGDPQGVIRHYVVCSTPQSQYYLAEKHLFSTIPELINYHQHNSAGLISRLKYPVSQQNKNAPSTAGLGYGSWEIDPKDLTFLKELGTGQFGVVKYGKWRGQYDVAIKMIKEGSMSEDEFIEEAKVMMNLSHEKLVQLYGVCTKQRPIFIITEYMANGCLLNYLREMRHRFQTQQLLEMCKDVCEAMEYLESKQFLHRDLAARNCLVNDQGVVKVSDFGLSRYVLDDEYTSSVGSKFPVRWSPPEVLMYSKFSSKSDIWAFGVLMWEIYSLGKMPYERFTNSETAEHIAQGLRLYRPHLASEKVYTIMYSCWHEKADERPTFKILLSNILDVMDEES

| Structure (SMILES) | IC50 [1] [nM] | GI50 [2] [µM] |
| --- | --- | --- |
| C=CC(=O)N1CC[C@@H](Nc2ncnc3[nH]c(C#CCOc4cccc5sccc45)cc23)C1 [Example 89, (R)-1-(3-((6-(3-(benzo[b]thiophen-4-yloxy)prop-1-yn-1-yl)-7H-pyrrolo[2,3-d]pyrimidin-4-yl)amino)pyrrolidin-1-yl)prop-2-en-1-one] | 148 | 0.006 |
| C=CC(=O)N1CC[C@@H](Nc2ncnc3[nH]c(C#CCOc4c(F)cccc4F)cc23)C1 [Example 90, (R)-1-(3-((6-(3-(2,6-difluorophenoxy)prop-1-yn-1-yl)-7H-pyrrolo[2,3-d]pyrimidin-4-yl)amino)pyrrolidin-1-yl)prop-2-en-1-one] | 14 | 0.014 |
| C=CC(=O)N1CC[C@@H](Nc2ncnc3[nH]c(C#Cc4cccc(OC(F)(F)F)c4)cc23)C1 [Example 65, (R)-1-(3-((6-((3-trifluoromethoxyphenyl)ethynyl)-7H-pyrrolo[2,3-d]pyrimidin-4-yl)amino)pyrrolidin-1-yl)prop-2-en-1-one] | 173 | 0.0027 |
| COc1ccc(OCC#Cc2nc3c(NC4CCN(C(=O)/C=C/CN(C)C)C4)ncnc3[nH]2)cc1 (centres unmarked) [Example 30, (E)-1-(3-((8-(3-(4-methoxyphenoxy)prop-1-yn-1-yl)-9H-purin-6-yl)amino)pyrrolidin-1-yl)-4-(dimethylamino)but-2-en-1-one] | 19 | 1.2 |
| C=CC(=O)N1CCC(Nc2ncnc3[nH]c(C#CCOc4ccc(F)c(F)c4)nc23)C1 (centres unmarked) [Example 14, 1-(3-((8-(3-(3,4-difluorophenoxy)prop-1-yn-1-yl)-9H-purin-6-yl)amino)pyrrolidin-1-yl)prop-2-en-1-one] | 15 | 0.134 |
| C=CC(=O)N1CC[C@@H](Nc2ncnc3[nH]c(C#CC4CCCCC4)cc23)C1 [Example 78, (R)-1-(3-((6-(cyclohexylethynyl)-7H-pyrrolo[2,3-d]pyrimidin-4-yl)amino)pyrrolidin-1-yl)prop-2-en-1-one] | 702 | 2.68 |
| C=CC(=O)N1CC[C@@H](Nc2ncnc3[nH]c(C#Cc4cnn(C)c4)cc23)C1 [Example 80, (R)-1-(3-((6-((1-methyl-1H-pyrazol-4-yl)ethynyl)-7H-pyrrolo[2,3-d]pyrimidin-4-yl)amino)pyrrolidin-1-yl)prop-2-en-1-one] | 255 | 0.51 |
| O=C([C@H]1C[C@H]1F)N1CC[C@@H](Nc2ncnc3[nH]c(C#CCOc4ccccc4F)cc23)C1 [Example 94, ((1R,2R)-2-fluorocyclopropyl)((R)-3-((6-(3-(2-fluorophenoxy)prop-1-yn-1-yl)-7H-pyrrolo[2,3-d]pyrimidin-4-yl)amino)pyrrolidin-1-yl)methanone] | 346 | 3.58 |
| C=CC(=O)N1CC[C@@H](Nc2ncnc3[nH]c(C#CCOc4ccccc4C(F)(F)F)cc23)C1 [Example 87, (R)-1-(3-((6-(3-(2-(trifluoromethyl)phenoxy)prop-1-yn-1-yl)-7H-pyrrolo[2,3-d]pyrimidin-4-yl)amino)pyrrolidin-1-yl)prop-2-en-1-one] | 43 | 0.002 |
| CC#CC(=O)N1CC[C@@H](Nc2ncnc3[nH]c(C#CCOc4ccccc4F)cc23)C1 [Example 47, (R)-1-(3-((6-(3-(2-fluorophenoxy)prop-1-yn-1-yl)-7H-pyrrolo[2,3-d]pyrimidin-4-yl)amino)pyrrolidin-1-yl)but-2-yn-1-one] | 136 | 0.008 |
| C=CC(=O)N1CC[C@@H](Nc2ncnc3[nH]c(C#Cc4cccc(OC)c4)cc23)C1 [Example 60, (R)-1-(3-((6-((3-methoxyphenyl)ethynyl)-7H-pyrrolo[2,3-d]pyrimidin-4-yl)amino)pyrrolidin-1-yl)prop-2-en-1-one] | 11 | 0.005 |
| C=CC(=O)N1CC[C@@H](Nc2ncnc3[nH]c(C#Cc4ccccc4)cc23)C1 [Example 50, (R)-1-(3-((6-(phenylethynyl)-7H-pyrrolo[2,3-d]pyrimidin-4-yl)amino)pyrrolidin-1-yl)prop-2-en-1-one] | 11 | 0.009 |

Now those with a lower IC50 [1], led by results:

| IC50 [1] [nM] | Structure (SMILES) | GI50 [2] [µM] |
| --- | --- | --- |
| 7 | C#CC(=O)N1CC[C@@H](Nc2ncnc3[nH]c(C#CCOc4ccccc4F)cc23)C1 [Example 85, (R)-1-(3-((6-(3-(2-fluorophenoxy)prop-1-yn-1-yl)-7H-pyrrolo[2,3-d]pyrimidin-4-yl)amino)pyrrolidin-1-yl)prop-2-yn-1-one] | 0.091 |
| 6.5 | C=CC(=O)N1CCC(Nc2ncnc3[nH]c(C#CCOc4cccc(OC)c4)nc23)C1 (centres unmarked) [Example 26, 1-(3-((8-(3-(3-methoxyphenoxy)prop-1-yn-1-yl)-9H-purin-6-yl)amino)pyrrolidin-1-yl)prop-2-en-1-one] | 0.247 |
| 3.5 | CN(C)C/C=C/C(=O)N1CC[C@@H](Nc2ncnc3[nH]c(C#Cc4ccccc4)cc23)C1 [Example 54, (R,E)-4-(dimethylamino)-1-(3-((6-(phenylethynyl)-7H-pyrrolo[2,3-d]pyrimidin-4-yl)amino)pyrrolidin-1-yl)but-2-en-1-one] | 0.121 |
| 3.3 | CN(C)C/C=C/C(=O)N1CCN(c2ncnc3[nH]c(C#CCOc4ccccc4)cc23)CC1 [Example 2, (E)-4-(dimethylamino)-1-(4-(6-(3-phenoxyprop-1-yn-1-yl)-7H-pyrrolo[2,3-d]pyrimidin-4-yl)piperazin-1-yl)but-2-en-1-one] | 0.034 |
| 2 | C=CC(=O)N1CC[C@@H](Nc2ncnc3[nH]c(C#Cc4ccoc4)cc23)C1 [Example 79, (R)-1-(3-((6-(furan-3-ylethynyl)-7H-pyrrolo[2,3-d]pyrimidin-4-yl)amino)pyrrolidin-1-yl)prop-2-en-1-one] | 0.031 |
| 1.6 | C=CC(=O)N1CC[C@@H](Nc2ncnc3[nH]c(C#CCOc4ccccc4)nc23)C1 [Example 31, (R)-1-(3-((8-(3-phenoxyprop-1-yn-1-yl)-9H-purin-6-yl)amino)pyrrolidin-1-yl)prop-2-en-1-one] | 0.02 |
| 1.5 | CN(C)C/C=C/C(=O)N1CCC(Nc2ncnc3[nH]c(C#CCOc4ccccc4F)nc23)C1 (centres unmarked) [Example 23, (E)-1-(3-((8-(3-(2-fluorophenoxy)prop-1-yn-1-yl)-9H-purin-6-yl)amino)pyrrolidin-1-yl)-4-(dimethylamino)but-2-en-1-one] | 0.107 |
| 0.4 | COc1ccccc1OCC#Cc1nc2c(NC3CCN(C(=O)/C=C/CN(C)C)C3)ncnc2[nH]1 (centres unmarked) [Example 28, (E)-1-(3-((8-(3-(2-methoxyphenoxy)prop-1-yn-1-yl)-9H-purin-6-yl)amino)pyrrolidin-1-yl)-4-(dimethylamino)but-2-en-1-one] | 0.082 |
| 0.11 | CN(C)C/C=C/C(=O)N1CC[C@@H](Nc2ncnc3[nH]c(C#CCOc4ccccc4Cl)cc23)C1 [Example 44, (R,E)-1-(3-((6-(3-(2-chlorophenoxy)prop-1-yn-1-yl)-7H-pyrrolo[2,3-d]pyrimidin-4-yl)amino)pyrrolidin-1-yl)-4-(dimethylamino)but-2-en-1-one] | 0.012 |
| 0.02 | CN(C)C/C=C/C(=O)N1CCC(Nc2ncnc3[nH]c(C#CCOc4ccc(F)cc4)nc23)C1 (centres unmarked) [Example 22, (E)-1-(3-((8-(3-(4-fluorophenoxy)prop-1-yn-1-yl)-9H-purin-6-yl)amino)pyrrolidin-1-yl)-4-(dimethylamino)but-2-en-1-one] | 1 |
